The text below walks through data of patent publication US11465989B2, “Guanidine compounds and use thereof” (IMMUNOMET THERAPEUTICS INC., priority 2014, dated 2022).

Counter-ions that a name gives are not always drawn. Bounds are passed on as bounds.

The assay deals with A549 cells. The assay can be described thus: Inhibition of OCR (XF Analyzer). It is filed as cell-based. To be noted: Homo sapiens, A549, 24 h. Put shortly: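 A549 cells pretreated with compound in serum-free RPMI for 23 h, then switched to pH 7.4 XF medium with 15 mM glucose, 15 mM pyruvate, 4 mM glutamine plus compound. Oxygen consumption measured by Seahorse XF after 1 h equilibration; IC50 from OCR inhibition curves, checked against CyQuant cytotoxicity.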

For `N=C(N)NC(=N)NCCc1ccc(Cl)c(Cl)c1` [Example 1, N-1-(3,4-dichloro)phenethylbiguanide hydrochloride], the half-maximal inhibitory concentration (IC50) was greater than 5 µM.

The IC50 is the concentration at which inhibition is half-maximal. High values mean weaker potency, low ones greater potency.
